US20100048611A1, “TETRAHYDROPYRROLOPYRIDINE, TETRAHYDROPYRAZOLOPYRIDINE, TETRAHYDRO-IMIDAZOPYRIDINE AND TETRAHYDROTRIAZOLOPYRIDINE DERIVATIVES AND USE THEREOF” (Bayer Healthcare AG, priority 2006, published 2010)

Target: human factor Xa (FXa) (Homo sapiens, UniProt P00742)
Test: Determination of the factor Xa inhibition (chromogenic substrate)
Format: biochemical
Details: chromogenic substrate Pefachrome FXa, 25° C., extinction at 405 nm
Description: a.1) Determination of the Factor Xa Inhibition:
The enzymatic activity of human factor Xa (FXa) is measured using the conversion of a chromogenic substrate specific for FXa. Factor Xa cleaves p-nitroaniline from the chromogenic substrate. The determinations are carried out in microtitre plates as follows:
The test substances, in various concentrations, are dissolved in DMSO and incubated for 10 minutes at 25° C. with human FXa ([…] dissolved in 50 mmol of Tris buffer [C,C,C-tris(hydroxymethyl)aminomethane], 150 mmol/l of NaCl, 0.1% BSA [bovine serum albumin], pH=8.3). Pure DMSO is used as control. The chromogenic substrate (150 μmol/l of Pefachrome® FXa from Pentapharm) is then added. After an incubation time of 20 minutes at 25° C., the extinction at 405 nm is determined.

human factor Xa (FXa), sequence (P00742 235-488 limits assumed): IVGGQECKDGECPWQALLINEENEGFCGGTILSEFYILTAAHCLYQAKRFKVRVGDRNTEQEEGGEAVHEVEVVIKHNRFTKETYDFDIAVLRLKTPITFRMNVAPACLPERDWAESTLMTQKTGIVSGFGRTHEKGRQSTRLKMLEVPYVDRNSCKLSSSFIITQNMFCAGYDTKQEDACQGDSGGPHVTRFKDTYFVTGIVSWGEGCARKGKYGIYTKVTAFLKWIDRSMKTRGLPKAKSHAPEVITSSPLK
human factor Xa (FXa), sequence (P00742 41-179 partner limits assumed): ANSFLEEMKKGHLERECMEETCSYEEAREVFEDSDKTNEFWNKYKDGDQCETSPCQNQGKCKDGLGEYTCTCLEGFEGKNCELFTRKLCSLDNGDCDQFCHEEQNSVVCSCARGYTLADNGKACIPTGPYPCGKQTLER

IC50: 0.8 nM
SMILES: COc1ccc(-n2nc(C(N)=O)c3c2C(=O)N(c2ccc(N4CCOC4=N)cc2)CC3)cc1 [Example 1, 6-[4-(2-Imino-1,3-oxazolidin-3-yl)phenyl]-1-(4-methoxyphenyl)-7-oxo-4,5,6,7-tetrahydro-1H-pyrazolo[3,4-c]pyridine-3-carboxamide methanesulphonate]
